These results are taken from patent US11578110B2, “Compounds for inducing tissue formation and uses thereof” (HISTIDE AG, priority 2015, dated 2023).

The test system of this test is hMSCs. The experiment in a line: STRO-1 stemness marker expression in hMSCs (immunostaining, ImageJ quantification). Type of test: cell-based, Human. As to the method: The cells were first fixed for 20 min with 4% paraformaldehyde/PBS at 4° C. After fixation, the cells were permeabilized in PBS containing 1% Triton X-100 for 15 min. Runx2, Osterix, Stro-1, Vinculin, Phalloidin, Osteopontin, Sox2, Sox9 antibodies were visualized by treating the cells with 1% (v/v) specific monoclonal antibodies for 1 hour at 37° C. Then the samples were incubated with Alexa fluor® 568 or 647 (F(ab′)2 fragment of IgG(H+L)) during 30 min at room temperature. The cell nuclei were counterstained in 20 ng/mL DAPI for 10 min at room temperature.
For this type of quantification the freeware image analysis ImageJ® software was used. The raw image was first converted to an 8-bit file, and then the unsharp mask feature was used (settings 1:0.2) to remove the image background (rolling ball radius 10). After smoothing, the resulting image, which appears similar to the original photomicrograph but with minimal background, was then converted to a binary image by setting a threshold. Threshold values were determined empirically by selecting a setting, which gave the most accurate binary image for a subset of randomly selected photomicrographs. The cell area was determined by manual delineation on raw fluorescent images. Total contact area and mean contact area per cell were calculated by “analyse particles” in ImageJ®. A minimum of 30 cells per condition were analyzed. Stro-1, CD-34+, and CD-105 expressions were determined using this procedure.
hMSCs were cultured on conventional cell culture plastic plates with or without the presence in the cell culture media of different GFR-binding compounds as defined hereins (SEQ ID NO: 50 to 104) in solution. […] This was probed by Stro-1 immunostaining after cell fixation as described in the Methods section. The quantification of Stro-1 positive contact numbers and areas was performed as described in the Methods section. A minimum of 30 cells per condition were analyzed.
RMSD values are always calculated for a GFR-binding peptide sequence exempt from any bioactive-carrier-affinity-containing group as defined herein (e.g. cysteine, WWFWG, GTPGP, etc. . . . ). When needed i.e. when attachment to a bioactive carrier is contemplated, the bioactive-carrier-affinity-containing group is then present in the GFR-binding compound when it is biologically tested. Using the method detailed in the description, the RMSD of 57 previously reported peptide sequences have been determined (Table 6) and correlated with the expression of STRO-1 after grafted on a PET surface via a procedure as already described above. […] One should note that it is commonly admitted that the expression of STRO-1 in a cell is indicative of a cell that is in a substantially non-differentiated state and the decrease of its expression of at least about 20% is indicative of a cell that has started a processes of differentiation but which may not result in the differentiation of the cell. A decrease of more than 50% would be indicative of the presence of a significant shift towards a differentiated state. A decrease of more than 70% would be indicative of the presence of a very important shift towards a differentiated state. A sustained decrease (e.g. for at least 96 h) of more than 50% or 70% would be indicative of the presence of an even more important shift towards a differentiated state.
Likewise, using the method detailed in the description, the RMSD of 87 GFR-binding peptide sequence representatives of the invention have been determined (Table 7) and correlated with the expression of STRO-1 after grafted on a PET surface via a procedure as already described above. SEQ ID NO: 1 to 49 were tested in combination with a bioactive carrier as defined above in the Examples Section (i.e. titanium, ceramics, PEEK, hydrogel, etc. . . . ), whereas SEQ ID NO: 1143 to 1180 were tested in solution.

Where [1] appears, read: SEQ ID NO: 1143 to 1180 tested in solution.
[2] abbreviates: SEQ ID NO: 1 to 49 tested in combination with a bioactive carrier (titanium, ceramics, PEEK, hydrogel, etc.).

Regarding “VEQLSNMVVK (Previously reported sequence) [SEQ ID NO: 1086, reference compound]”, the STRO-1 expression (grafted on a PET surface) turned out to be 98%.

For the sequence “RVPSTSSAPTKMKPLSMLYV (GFR-binding peptide) [SEQ ID NO: 1169]”, under setting [1], the STRO-1 expression was 22%.

With “RVPSTSSVPTGQSAISTLYL (GFR-binding peptide) [SEQ ID NO: 1144]”, the STRO-1 expression under setting [1] was 19%.

Regarding “GTPGPNDEGLESAPTGQNAISVLYF (GTPGPNDEGLEXAPTGQNAISVLYF; GFR-binding peptide; MOD_RES (12)..(12): Xaa is C or S) [SEQ ID NO: 31]”, the STRO-1 expression under setting [2] was 32%.

Regarding “RVPSTSSTQVDLNAISVLYF (GFR-binding peptide) [SEQ ID NO: 1159]”, under setting [1], the STRO-1 expression worked out at 23%.

As to “GIPEPSSVSQELSATSMLYY (GFR-binding peptide) [SEQ ID NO: 1160]”, the STRO-1 expression under setting [1] is 22%.

With “TCCVPELSAISMLYLDEN (Previously reported sequence) [SEQ ID NO: 1131, reference compound]”, the STRO-1 expression (grafted on a PET surface) came to 84%.

“VGAAWWLREQGSPINTLAVPA (Previously reported sequence) [SEQ ID NO: 1103, reference compound]”: for the setting “grafted on a PET surface”, the STRO-1 expression is listed as 88%.

With “LGIAAIIFLQQVPAAFSATSPPG (Previously reported sequence) [SEQ ID NO: 1113, reference compound]”, under “grafted on a PET surface”, the STRO-1 expression was 97%.

As for KVGKASSVSQKLEPLTILYY [SEQ ID NO: 10], the STRO-1 expression under setting [2] is reported as 32%.

“STPPTSSSRVQLSAISMLYL (GFR-binding peptide) [SEQ ID NO: 1154]”: the STRO-1 expression under setting [1] came out at 15%.

On to “KIPKASSTPTRLSPISMLFI (GFR-binding peptide) [SEQ ID NO: 1163]”, for which the STRO-1 expression under setting [1] came out at 28%.

As for RVPSTSSVPAKTSPISILYI [SEQ ID NO: 43], the STRO-1 expression under setting [2] came to 15%.

In the case of “VPTKLSPISILYKDDMGVPTYKFKYEGMSVAECGCR (Previously reported sequence) [SEQ ID NO: 1109, reference compound]”, for the setting “grafted on a PET surface”, the STRO-1 expression came out at 82%.

Take “IKSPARHSAPTHQEPLP (Previously reported sequence) [SEQ ID NO: 1097, reference compound]”: the STRO-1 expression (grafted on a PET surface) was determined as 98%.

Take ASASPSSTQVDLRPVQVRKI [SEQ ID NO: 40]: the STRO-1 expression under setting [2] was determined as 36%.

As for “STPPTSSVPTEVSPINTLYF (GFR-binding peptide) [SEQ ID NO: 1166]”, under setting [1], the STRO-1 expression stood at 19%.

In the case of NDEGLESAPTEENAISVLYF [SEQ ID NO: 4], under setting [2], the STRO-1 expression is 22%.

Turning to “GTPGPASSVPTKLSAISMLYL (GTPGPAXXVPTKLSAISMLYL; GFR-binding peptide; MOD_RES (7)..(8): Xaa is C or S) [SEQ ID NO: 26]”, the STRO-1 expression under setting [2] turned out to be 23%.

“CCAPTELSAISVLYFDDSSNVILKKYRNMVVRACGCR (Previously reported sequence) [SEQ ID NO: 1139, reference compound]”: the STRO-1 expression (grafted on a PET surface) was 81%.

For the sequence “PNYSVPAGNKPLSERE (Previously reported sequence) [SEQ ID NO: 1100, reference compound]”, the STRO-1 expression (grafted on a PET surface) is given as 95%.

Take “GTPGPVPTELSPISVLYK (GFR-binding peptide) [SEQ ID NO: 25]”: the STRO-1 expression under setting [2] is on record as 17%.

For the sequence “KIPKASSVPTKMKPLSVLYV (GFR-binding peptide) [SEQ ID NO: 1168]”, under setting [1], the STRO-1 expression came out at 21%.

As for “NDEGLESVPEDLSSLSVLFF (GFR-binding peptide) [SEQ ID NO: 1143]”, the STRO-1 expression under setting [1] is 23%.

For “HIRSTTSSYVSLKSNITNRTIQTPTYSYT (Previously reported sequence) [SEQ ID NO: 1092, reference compound]”, the STRO-1 expression (grafted on a PET surface) came out at 98%.

On to “VPTELSPISLLYLDEFEKVTLKNYQDMVVDG (Previously reported sequence) [SEQ ID NO: 1110, reference compound]”, for which the STRO-1 expression (grafted on a PET surface) is on record as 87%.

Take “KIPKPSSAPTELSAISMLC (Previously reported sequence) [SEQ ID NO: 1132, reference compound]”: the STRO-1 expression (grafted on a PET surface) is 82%.

“MQCRELVTQVTEEPISQTEDGEEQESTTTPRLKGQKKE (Previously reported sequence) [SEQ ID NO: 1104, reference compound]”: for the setting “grafted on a PET surface”, the STRO-1 expression is given as 85%.

In the case of “ANINKDRDNVPAATSSLSKAYNP (Previously reported sequence) [SEQ ID NO: 1119, reference compound]”, the STRO-1 expression (grafted on a PET surface) stood at 92%.

For the sequence “KIPKPSSAPTELSAISMC (Previously reported sequence) [SEQ ID NO: 1129, reference compound]”, the STRO-1 expression (grafted on a PET surface) came to 78%.

Take “GTPGPGSAGPSSTPTKMSAISMLYL (GTPGPGSAGPXXTPTKMSAISMLYL; GFR-binding peptide; MOD_RES (11)..(12): Xaa is C or S) [SEQ ID NO: 34]”: under setting [2], the STRO-1 expression came out at 26%.

Consider “RVPSTSSTQVKMSAISMLYL (GFR-binding peptide) [SEQ ID NO: 1155]”, for which the STRO-1 expression under setting [1] is 17%.

RNVQSRPTQVQLSAISMLYL [SEQ ID NO: 14]: under setting [2], the STRO-1 expression was 16%.

As for “LNEVLRFCGIQVPEGDEPLTY (Previously reported sequence) [SEQ ID NO: 1095, reference compound]”, the STRO-1 expression (grafted on a PET surface) was determined as 99%.

On to “KPCCAPTELSAISVLYFDDSSNVILKKYRNMVVRACGCR (Previously reported sequence) [SEQ ID NO: 1142, reference compound]”, for which the STRO-1 expression (grafted on a PET surface) was 83%.

For “SPISILVVPELDASLPEKRPSLDGFEALLVYNAPKA (Previously reported sequence) [SEQ ID NO: 1106, reference compound]”, the STRO-1 expression (grafted on a PET surface) turned out to be 82%.

Consider “AASKASSSRVELRSVKIAKV (GFR-binding peptide) [SEQ ID NO: 1152]”, for which the STRO-1 expression under setting [1] turned out to be 33%.

Regarding KVGKASSVPTKLSAISMLYL [SEQ ID NO: 20], under setting [2], the STRO-1 expression came out at 19%.

Consider “RVPSTSSVPAEESNITVQIM (GFR-binding peptide) [SEQ ID NO: 1176]”, for which the STRO-1 expression under setting [1] was determined as 26%.

With RNVQSRPTQVQLNAISVLYF [SEQ ID NO: 11], the STRO-1 expression under setting [2] is reported as 24%.

As for “VHLLKPHAVPKACCAPTKLSATSVLYYDSSNNVILRKHRNMVVRACGCH (Previously reported sequence) [SEQ ID NO: 1118, reference compound]”, the STRO-1 expression (grafted on a PET surface) turned out to be 88%.

As for “GTPGPVPQELEPLTILYY (GFR-binding peptide) [SEQ ID NO: 24]”, the STRO-1 expression under setting [2] was 16%.

As to “TPTVVSATSL (Previously reported sequence) [SEQ ID NO: 1111, reference compound]”, for the setting “grafted on a PET surface”, the STRO-1 expression came out at 98%.

As for “GIPEPSSVSQEESSLSTLFF (GFR-binding peptide) [SEQ ID NO: 1156]”, under setting [1], the STRO-1 expression stood at 19%.

Consider “GIPEPSSAPVDLKPLSTLYV (GFR-binding peptide) [SEQ ID NO: 1148]”, for which the STRO-1 expression under setting [1] is on record as 11%.

With HVPKPSSAPTKLSAISMLYL [SEQ ID NO: 12], the STRO-1 expression under setting [2] is 28%.

For “MRTESTPTTASAISYECLWSPPSNEAAKLHFDS (Previously reported sequence) [SEQ ID NO: 1137, reference compound]”, for the setting “grafted on a PET surface”, the STRO-1 expression turned out to be 94%.
